Measurements reported in patent US11236102B2, “Oxabicycloheptane prodrugs” (Lixte Biotechnology, Inc., priority 2015, dated 2022).
Where two headings read alike, the source gives them in different places.

What was measured:
in vivo [1] = settings: rat, iv, 1.4 mg/kg
Experimental: 113 was dissolved in 4% NaHCO3 in saline for IV administration. The detailed procedure of dosing solution preparation was presented in Appendix I.
15 animals were placed on the study. The animals in IV arm were free access to food and water. For PO dose group, the animals were fasted overnight prior to dosing and the food was resumed 4 hours postdose.
The IV injection was conducted via foot dorsal vein. PO via oral gavage.
Blood collection: The animal is restrained manually. Approximately 200 μL of blood/time point is collected into sodium heparin tube via cardiac puncture for terminal bleeding (anesthetized under carbon dioxide). Blood sample will be put on ice and centrifuged to obtain plasma sample (2000 g, 5 min under 4° C.) within 10 minutes.
Liver collection: The animal will be euthanized with carbon dioxide inhalation. Open abdominal cavity with scissor to expose internal organs. Hold the carcass in an upright position and allow the organs to fall forward. Cut the connective tissues and remove the organs. Then the organs are rinsed with cold saline, dried on filtrate paper, placed into a screw-top tube and weighed, snap frozen by placing into dry-ice immediately.
Brain collection: Make a mid-line incision in the animals scalp and retract the skin. Using small bone cutters and rongeurs, remove the skull overlying the brain. Remove the brain using a spatula and rinse with cold saline, dried on filtrate paper, placed into a screw-top tube and weighed, snap frozen by placing into dry-ice immediately. […] Plasma, brain and liver samples were stored at approximately −80° C. until analysis. The backup samples will be discarded after three weeks after in-life completion unless requested. The unused dosing solutions will be discarded within three weeks after completion of the study.
Pharmacokinetic Analysis Software: The PK parameters were determined by non-compartmental model of non-compartmental analysis tool, Pharsight Phoenix WinNonlin® 6.2 software. […] Concentration data within 80%-120% of LLOQ was considered within normal instrumental variation and presented in the results. Terminal t1/2 calculation: Time points were automatic selected by “best fit” model for terminal half life estimation as the first option. Manual selection was applied when “best fit” could not well define the terminal phase. Results

[2] = Pharmacokinetic study of 151 (iv, oral) in SD rats: 151 and 100 in plasma; assay type: in vivo; settings: male, rat, in vivo, iv, 1 mg/kg, 5 h
Experimental: The absolute bioavailability was evaluated.
To each sample, 160 μL of acetonitrile were added.
The mass spectrometer was operated in the positive mode.
Quantification was achieved by the external standard method.
Calibration Curve for Plasma Samples
LB100 concentrations of the LB151 plasma samples were also measured and pharmacokinetic parameters were calculated.

in vivo [3] = assay type: in vivo; settings: rat, in vivo
Experimental: 100 was administrated via iv route at 0.5, 1.0 and 1.5 mg/kg into SD rats. The blood, liver and brain tissue samples were collected at predetermined times from rats.
Twelve (12) female SD rats per group were dosed by iv with 100. The rats were fasted overnight prior to dosing, with free access to water. Foods were withheld for 2 hours post-dose. Blood, liver and brain tissue samples in two animals each group were collected at each time point, within 10% of the scheduled time for each time point. Two extra animals were used for analytic method development. Blood (>0.3 mL) were collected via aorta abdominalis in anaesthetic animals into tubes containing heparin at 15 min, 1, 2, 6, 10 and 24 hours after iv administration. Liver and brain tissues were collected immediately after animal death. The liver and brain tissues were excised and rinsed with cold saline to avoid blood residual. Upon collection, each sample was placed on ice and the blood samples were subsequently centrifuged (4° C., 11000 rpm, 5 min) to separate plasma. The obtained plasma, liver and brain tissue samples were stored at −70° C. until LC-MS/MS analysis.
AUC0-∞ (AUCINF) is the area under the plasma concentration-time curve with last concentration extrapolated based on the elimination rate constant.

[4] = test system: PP2A in circulating white blood cells; assay: Inhibition of PP2A in circulating white blood cells after slow iv 100; assay type: in vivo; settings: rat
[5] = test system: broad spectrum of human cancer cell lines; assay: Activity of compound 100 against human cancer cell lines; assay type: cell-based
U251 human GBM cells = settings: compound 100 ip plus radiation
Experimental: Compound 100 is a serine-threonine phosphatase inhibitor that potentiates the activity of standard chemotherapeutic drugs and radiation. The mechanism of potentiation is impairment of multiple steps in a DNA-damage repair process and inhibition of exit from mitosis. […] Mice bearing subcutaneous (sc) xenografts of U251 human GBM cells were treated with compound 100 intraperitoneally together with radiation, each given daily for 5 days×3 courses.

[6] = Stability in the presence of microsomes; assay type: in vitro ADME; settings: mouse, rat, dog, monkey, and human microsomes; relative to verapamil
[7] = Radiation dose enhancement by compound 100; settings: compound 100 treatment
[8] = rat, in vivo
[9] = rat, in vivo; remark: listed apart in the source
[10] = female rats, day 4, cited from earlier work
[11] = female dogs, day 4, cited from earlier work
[12] = male, SD, Liver-plasma concentration ratio of 100
[13] = male, SD, liver concentration of 100
[14] = male, SD, plasma concentration of 100
[15] = male, Sprague-Dawley, Liver-plasma concentration ratio of 100

CN1CCN(C(=O)C2C3CCC(O3)C2C(=O)O)CC1 (centres unmarked) [Compound 100]
plasma concentration of 100 (in vivo [1]; male, SD, 6 hr): 3.25 ng/mL | Kp at 0.25 hr (in vivo [1]; [12]): 4.1 | Kp at 1 hr (in vivo [1]; [12]): 4.98 | concentration at 0.25 hr (in vivo [1]; [13]): 2090 ng/g | concentration at 1 hr (in vivo [1]; [13]): 1360 ng/g | concentration at 2 hr (in vivo [1]; [13]): 425 ng/g | concentration at 6 hr (in vivo [1]; [13]): 23.8 ng/g | concentration at 0.25 hr (in vivo [1]; [14]): 510 ng/mL | concentration at 1 hr (in vivo [1]; [14]): 273 ng/mL | concentration at 6 hr (in vivo [1]; [14]): 3.25 ng/mL | AUC(0-t) ratio of liver over plasma (in vivo [1]; male, Sprague-Dawley): 399 | Liver-plasma concentration ratio of 100 (in vivo [1]; male, Sprague-Dawley, 6 hr): 7.32 | Kp at 2 hr (in vivo [1]; [15]): 4.95 | Kp at 6 hr (in vivo [1]; [15]): 7.32 | AUC(0-last) in liver (in vivo [1]): 2804 ng·h/g | AUC(0-∞) in liver (in vivo [1]): 2834 ng·h/g | AUClast-liver/AUClast-plasma of 100 (in vivo [1]): 399 | Plasma Concentrations of 100 ([2]; Sprague-Dawley (SD)): 5.10 ng/mL | Plasma Concentrations of 100 ([2]; Sprague-Dawley): 10.2 ng/mL | half-life (in vivo [3]; Sprague-Dawley): ≤ 60 min | mean Cmax in plasma (in vivo [3]; female, Sprague-Dawley, iv, 1.5 mg/kg): 1110 to 3664 ng/mL | detectability in liver and brain tissue samples (in vivo [3]; iv): detectable | AUClast in brain (in vivo [3]; iv, 1.5 mg/kg): 10.8 to 125.5 ng·h/g | AUClast in liver (in vivo [3]; iv, 1.5 mg/kg): 758.6 to 9081.0 ng·h/g | inhibition of PP2A in circulating white blood cells ([4]; slow iv 100 at 0.375 mg/kg): 9% | inhibition of PP2A in circulating white blood cells ([4]; slow iv 100 at 0.75 mg/kg): 15% | inhibition of PP2A in circulating white blood cells ([4]; slow iv 100 at 1.5 mg/kg): 25% | IC50 [5]: 1000 to 3000 nM | recurrence of the remaining 40% of xenografts vs radiation alone (U251 human GBM cells): two months later | xenografts eliminated (U251 human GBM cells; daily for 5 days x 3 courses, 6 months plus follow-up): 60% | stability in presence of microsomes [6]: stable relative to verapamil | radiation dose enhancement factor [7]: 1.45 | oral bioavailability [8]: 1% | plasma level after oral administration [8]: little is present in plasma after oral administration | passage of blood brain barrier (BBB) [9]: does not readily pass the blood brain barrier (BBB) | % AUC* Extrapolated ([10]; 0.5 mg/kg): 5.6% | Co ([10]; 0.5 mg/kg): 1497 ng/mL | DN AUClast ([10]; 0.5 mg/kg): 904 | % AUC* Extrapolated ([10]; 0.75 mg/kg): 27% | Co ([10]; 0.75 mg/kg): 2347 ng/mL | DN AUClast ([10]; 0.75 mg/kg): 921 | % AUC* Extrapolated ([10]; 1.25 mg/kg): 17% | Co ([10]; 1.25 mg/kg): 3849 ng/mL | DN AUClast ([10]; 1.25 mg/kg): 1887 | Co ([11]; 0.15 mg/kg): 566 ng/mL | Co ([11]; 0.30 mg/kg): 857 ng/mL | Co ([11]; 0.50 mg/kg): 1930 ng/mL
